Test results from patent US20220087987A1, “A METHOD FOR TREATING SWI/SNF COMPLEX-DEFICIENT CANCERS COMPRISING GLUTATHIONE (GSH) METABOLIC PATHWAY INHIBITOR” (National Cancer Center, priority 2018, published 2022).
Read-outs that look alike come from different tables or passages of the source. Numbered stars: 1 amine (or outer) side, 2 acyl side, 3 side chain; on linkers, the order of the positions; unused ones are H or OH. Bridge positions count the residues as written; N and C are the ends. Square brackets hold non-standard residues; d marks the D form. Peptide text beside a SMILES is read from it. I, II: the chains in the order shown. Actinocin(9to1) = Cc1c2oc3c(C)ccc(C(=O)[*:1])c3nc-2c(C(=O)[*:2])c(N)c1=O; NMeV = CN[C@H](C(=O)O)C(C)C; Sar = CNCC(=O)O

Columns and labels:
ARID1A-KO HCT116 cells = experiment: Drug library screen, cell viability (CellTiter-Glo); format: cell-based, human; design: key to Cell viability, KO: % viability relative to DMSO solvent-treated cells
Method: (§1) ARID1A-WT and ARID1A-KO HCT116 cancer cells were used for screening assays. […] Cell viability was assessed after 5 days using the CellTiter-Glo Luminescent Cell Viability Assay (Promega). Luminescence was measured using an Envision Multi-label plate reader (PerkinElmer). The luminescence reading was used to determine the cell viability relative to that of cells treated with solvent (DMSO). Candidate compounds were considered if viability of ARID1A-KO cells was less than […] was more than 80%.

ARID1A-WT HCT116 cells = experiment: as above; format: cell-based, human; design: key to Cell viability, WT: % viability relative to DMSO solvent-treated cells
Method: as §1

[1] = HCT116 ARID1A-KO, 10 μM for 5 days, relative to cells treated with solvent (DMSO)
[2] = HCT116 ARID1A-WT, 10 μM for 5 days, relative to cells treated with solvent (DMSO)

Compound | Cell viability, KO (ARID1A-KO HCT116 cells; [1]) | Cell viability, WT (ARID1A-WT HCT116 cells; [2]) | Cell viability, KO (ARID1A-KO HCT116 cells) | Cell viability, WT (ARID1A-WT HCT116 cells)
COC(=O)[C@H](CC(C)C)NC(=O)c1ccc(NC[C@@H](N)CS)cc1-c1ccccc1 [GGTI-286] | 123.5827 | – | – | –
Cc1c2oc3c(C)ccc(C(=O)N[C@@H]4C(=O)N[C@H](C(C)C)C(=O)N5CCC[C@H]5C(=O)N(C)CC(=O)N(C)[C@@H](C(C)C)C(=O)O[C@@H]4C)c3nc-2c(C(=O)N[C@@H]2C(=O)N[C@H](C(C)C)C(=O)N3CCC[C@H]3C(=O)N(C)CC(=O)N(C)[C@@H](C(C)C)C(=O)O[C@@H]2C)c(N)c1=O [Actinomycin D] (I: T[dV]P[Sar][NMeV] / II: T[dV]P[Sar][NMeV]; ester I:1-I:C, II:1-II:C; linker I:N-II:N via Actinocin(9to1)) | 6.531 | 6.951 | – | –
CN(C)c1nc2c(Br)c(Br)c(Br)c(Br)c2[nH]1 [DMAT] | 116.7866 | 113.7397 | – | –
CCCCCCCCCCCCCCCc1cccc(O)c1C(=O)O [Anacardic acid] | 112.6464 | 102.71 | – | –
N#C/C(=C/c1ccc(O)c(O)c1)C(=O)NCc1ccccc1 [AG490] | 114.4173 | 152.9882 | – | –
Tamoxifen, citrate | 18.66 | 24.8 | – | –
CC(C)c1ccc2c(c1)c(SC(C)(C)C)c(CC(C)(C)C(=O)O)n2Cc1ccc(Cl)cc1 [MK 886] | 112.1339 | 116.7328 | – | –
N#CCCc1ccc2c(c1)-c1[nH]c3ccc([N+](=O)[O-])cc3c1CC(=O)N2 [Alsterpaullone, 2-cyanoethyl] | 14.55 | 6.82 | – | –
O=Cc1ccc(N2CCOCC2)cc1O [IC60211] | 174.6736 | 131.0236 | – | –
O=C1C(SCCO)=C(SCCO)C(=O)c2ccccc21 [NSC95397] | 15.8033 | 41.93 | – | –
C/C(O)=C(\C#N)C(=O)Nc1cc(Br)ccc1Br [LFM-A13] | 106.7176 | 93.88 | – | –
c1cc(-c2cnn3cc(-c4ccc(OCCN5CCCCC5)cc4)cnc23)ccn1 [compound C] | 9.381 | 6.447 | – | –
COc1cc2ncnc(Nc3ccc(NC(=O)c4ccccc4)cc3)c2cc1OC [Aurora kinase inhibitor II] | 60.46 | 53.336 | – | –
O=C(Nc1ccc([N+](=O)[O-])cc1O)Nc1ccccc1Br [SB 225002] | 8.056 | 5.2146 | – | –
CC(C)c1cc(/C=C(\C#N)C(=O)NCCCc2ccccc2)cc(C(C)C)c1O [SU1498] | 119.3751 | 165.2374 | – | –
CCN1/C(=C/C(C)=O)Sc2ccc(OC)cc21 [TG003] | 138.6968 | 115.1966 | – | –
Cc1cccc(-c2nn3c(c2-c2ccnc4ccc(C(N)=O)cc24)CCC3)n1 [LY2157299] | 113.5072 | 91.31 | – | –
Cc1c[nH]c(/C=C2\C(=O)Nc3ccccc32)c1CCC(=O)O [SU5402] | 139.2404 | 110.6763 | – | –
CN(C)S(=O)(=O)c1ccc2c(c1)/C(=C/c1cc3c([nH]1)CCCC3)C(=O)N2 [SU6656] | – | – | 170.9958 | 124.1846
Cc1nc2c(O)cccc2c(=O)[nH]1 [NU1025] | 123.2356 | 174.885 | – | –

Compound | Cell viability, KO (ARID1A-KO HCT116 cells; [1]) | Cell viability, WT (ARID1A-WT HCT116 cells; [2]) | Cell viability, KO (ARID1A-KO HCT116 cells) | Cell viability, WT (ARID1A-WT HCT116 cells)
CCCCCCCC(=O)OCCOC(=O)CCCCCCC [Dioctanoylglycol] | 109.4112 | 99.78 | – | –
CC(C)(C)c1cc(C=C(C#N)C#N)cc(Br)c1O [AG1024] | 183.5477 | 161.1636 | – | –
CCCCCCCCCCCCCCOc1ccc(C(=O)O)o1 [TOFA] | 74.56 | 75.72 | – | –
O=c1[nH]cc(F)c(=O)[nH]1 [5-FU] | 24.07 | 32.167 | – | –
Cc1cccc(-c2nn(C(=S)Nc3ccccc3)cc2-c2ccnc3ccccc23)n1 [A83-01] | 104.8454 | 77.92 | – | –
C[n+]1ccc(-c2c3nc(c(-c4cc[n+](C)cc4)c4ccc([nH]4)c(-c4cc[n+](C)cc4)c4ccc([nH]4)c(-c4cc[n+](C)cc4)c4nc2C=C4)C=C3)cc1 [TMPyP4] | 32.37 | 19.35 | – | –
NC(=O)c1ccc(-c2nc(-c3ccccn3)c(-c3ccc4c(c3)OCO4)[nH]2)cc1 [SB 431542] | 85.02 | 85.04 | – | –
CN(C)CCCCC(=O)Nc1ccc(NC(=S)NC(=O)c2ccc(C(C)(C)C)cc2)cc1 [Tenovin-6] | 5.579 | 2.514 | – | –
CCC(=C/[C@H](C)C/C=C/C(C)=C/[C@@H](C)C(=O)[C@@H](C)[C@H](O)[C@@H](C)C/C(C)=C/C(=O)O)/C=C/[C@@H]1OC(=O)C=C[C@@H]1C [Leptomycin B*, Leptomycin B] | 4.969 | 5.031 | – | –
O=C1Nc2cc(Br)ccc2/C1=C1/Nc2ccccc2/C1=N\O [BIO] | 107.4068 | 87.19 | – | –
O=C(Nc1ccc2c(O)cc(S(=O)(=O)O)cc2c1)Nc1ccc2c(O)cc(S(=O)(=O)O)cc2c1 [AMI-1] | 85.52 | – | – | –
Oc1ccc(-c2nc(-c3ccc(F)cc3)c(-c3ccncc3)[nH]2)cc1 [SB202190] | 191.0939 | 108.8022 | – | –
COc1cccc(-c2cc(=O)c3ccccc3o2)c1N [PD 98059] | 111.8217 | 168.8128 | – | –
O=C1Nc2ccc(I)cc2/C1=C/c1cc(Br)c(O)c(Br)c1 [RAF1 kinase inhibitor I] | 164.7652 | 127.271 | – | –
COC(=O)[C@H](Cc1ccc([N+](=O)[O-])cc1)NC(=O)c1cccc2ccccc12 [SB 328437] | 112.6489 | 104.1947 | – | –
COC(=O)[C@@]1(OC)C[C@H]2O[C@]1(C)n1c3ccccc3c3c4c(c5c6ccccc6n2c5c31)C(=O)N(C)C4 [KT 5823] | 111.294 | 102.1181 | – | –
COc1ccc2c3c([nH]c2c1)[C@H](C=C(C)C)N1C(=O)[C@@H]2CCCN2C(=O)[C@@H]1C3 [Fumitremorgin C] | 97.39 | 90.41 | – | –
Cc1cn([C@H]2C[C@H](N=[N+]=[N-])[C@@H](CO)O2)c(=O)[nH]c1=O [AZT] | 60.27 | 71.38 | – | –
CCNCCCNCCCCNCCCNCC [N1,N12-Diethylspermine (BESpm), N1,N12-Diethylspermine] | 37.8 | 32.23 | – | –
Tunicamycin | 6.011 | 4.6969 | – | –

Compound | Cell viability, KO (ARID1A-KO HCT116 cells; [1]) | Cell viability, WT (ARID1A-WT HCT116 cells; [2]) | Cell viability, KO (ARID1A-KO HCT116 cells) | Cell viability, WT (ARID1A-WT HCT116 cells)
O=c1onc2cnc3ccccc3n12 [ODQ] | 84.9 | 84.47 | – | –
C=CCNC1=C2C[C@@H](C)C[C@H](OC)[C@H](O)[C@@H](C)/C=C(\C)[C@H](OC(N)=O)[C@@H](OC)/C=C\C=C(/C)C(=O)NC(=CC1=O)C2=O [17-AAG] | 8.214 | 8.063 | – | –
NC1CC1c1cc(F)cc(F)c1OCc1ccccc1 (centres unmarked) [S2101 (LSD1 inhibitor II)] | 83.95 | 80.52 | – | –
NC(=O)c1ccc(-c2nc(-c3ccc4c(c3)OCCO4)c(-c3ccccn3)[nH]2)cc1 [D4476] | – | – | 124.271 | 93.4
C=C1[C@@H](C)[C@H]2[C@H](Cc3ccccc3)NC(=O)[C@]23[C@H](OC(C)=O)/C=C/[C@@](C)(O)C(=O)[C@@H](C)C/C=C/[C@H]3[C@@H]1O [Cytochalasin D] | 59.86 | 63 | – | –
NC(=O)Nc1sc(-c2ccccc2)cc1C(N)=O [IKK-2 inhibitor VI] | 22.26 | 19.28 | – | –
GSK-3 inhibitor IX | 147.7846 | 105.4779 | – | –
CN1C(=O)CN=C(c2ccc(Cl)cc2)c2cc(Cl)ccc21 [Ro 5-4864] | 98.27 | 92.88 | – | –
CC1CNCCN1S(=O)(=O)c1cccc2cnccc12 (centres unmarked) [H-7] | 70.52 | 116.4721 | – | –
CCCCOc1cc(CC2CNC(=O)N2)ccc1OC (centres unmarked) [Ro-20-1724] | 105.8008 | 163.0432 | – | –
O=C(NCc1ccccc1)c1csc(Nc2ccncn2)n1 [Thiazovivin] | 30.49 | 50.22 | – | –
O=S(=O)(c1cccc2c(I)cccc12)N1CCCNCC1 [ML-7] | 78.88 | 76.67 | – | –
Fc1ccc(Cl)cc1-c1nc(Nc2ccncc2)c2nccnc2n1 [SD208] | 78.9 | 73.72 | – | –
O=c1[nH]c2ccccc2n1C1CCN(Cc2ccc(-c3nc4cc5[nH]cnc5cc4nc3-c3ccccc3)cc2)CC1 | 124.843 | 84.5 | – | –
Nc1[nH]nc2nnc(-c3c(-c4ccccc4)nn4ccccc34)cc12 [ERK inhibitor II] | 160.6702 | 103.8555 | – | –
O=C(NCCCCCCNC(=O)ON=C1CCCCC1)ON=C1CCCCC1 [RHC80267] | 92.22 | 82.45 | – | –
COc1nccc(-c2c(-c3ccc(F)cc3)ncn2C2CCC(O)CC2)n1 (centres unmarked) [SB239063] | 174.3691 | 118.4502 | – | –
COc1ccc(C[C@H]2NC[C@H](O)[C@H]2OC(C)=O)cc1 [anisomycin] | 7.327 | – | – | –
